Measured values from US8853226B2, “Tricyclic compounds as modulators of TNF-α synthesis and as PDE4 inhibitors” (High Point Pharmaceuticals, LLC, priority 2008, dated 2014).
Structures can show the parent of a compound that is named as a salt.

What was measured:
[1] = target: PDE4D (Homo sapiens (Human), UniProt Q08499); test: PDE4 Inhibition Assay (TR-FRET IMAP, FAM-cAMP substrate); type: biochemical; details: 100 nM cAMP, 30° C., 90 minutes
Experimental: (§1) A TR-FRET-based phosphodiesterase assay kit from “Molecular Devices” was used to test whether these compounds were indeed direct inhibitors of the PDE4 enzyme. Using Roflumilast as a positive control, compounds of the present invention were tested against fluorescein-labeled cAMP substrate. The principle of the assay is based on the binding of a nucleotide monophosphate generated upon cAMP conversion to 5′ AMP by PDE to an “IMAP binding reagent”, which in turn is also ligated to a separate complex carrying terbium (Tb)-donor molecule. Proximity of the fluoreceinated 5′AMP to the Tb donor generates Fluorescence Resonance Energy Transfer. A PDE inhibitor will reduce the conversion of cAMP to 5′AMP, thus reducing monophosphate that can bind to the IMAP binding reagent and reduce the resulting FRET signal.
(§2) The assay buffer was prepared by diluting 5× supplied Tween-based buffer in 1:5 in water to make 1× buffer. Add desired additive to buffer (DTT or MnCl2). In a separate 96-well polypropylene plate, compound dilutions were prepared in assay buffer. Separate microcentrifuge tubes were prepared of PDE4B and PDE4D according to assay template—in assay buffer. The tubes were kept on ice. The enzyme concentration shown on the template were diluted by 1:4. FAM-cAMP substrate solution was prepared according to assay template. 5 μl compound was transferred from polypropylene plate into black 384-well plate. This plate was centrifuged briefly to make sure all 5 μl is on the bottom. Up to 80 μl of prepared PDE4B enzyme solution was transferred into alternate wells on row ‘N’ of 384-well plate starting from cell N1. Up to 80 μl of prepared PDE4D enzyme solution was transferred into alternate wells on row ‘O’ of 384-well plate, starting from cell O2. cAMP substrate solution was transferred into bottom row of separate 96-well plate. 5 μl of enzyme solution from the “reservoir” row (N or O) was transferred to each of the wells containing compounds, per layout map. Next, 10 μl of cAMP substrate was transferred to these wells. The order of substrate-first or enzyme-first can be switched depending on what is optimal. The final cAMP concentration was 100 nM in the reaction. 20 μl of assay buffer was pipetted into 4 separate wells—these are the blanks. The plate was sealed with an aluminum strip and incubated at 30° C. for 90 minutes. A TR-FRET solution was prepared. […]. 25 μl ( 1/800 of 20 ml) of binding beads was added to this and mix by inverting. 60 μl of this mixture was pipetted into 2 of the wells containing the “blank” assay buffer. Next, 49.7 μl ( 1/400 of remaining volume) of Tb donor solution was added to the remaining TR-FRET solution and mixed by inverting. 60 μl of this solution was pipetted into remaining 2 “blank” assay buffer-containing wells. The TR-FRET solution was poured into a pipette boat and a multichannel pipette was used to drop 60 μl of solution into all assay wells. The wells were covered with a foil strip and incubated for at least 3 hours or overnight protected from light (e.g. in a drawer) at room temperature. The plate was read on the Envision Reader: Emission 1: 520/Emission 2: 486/Exc: 340. Mirror: Umbelliferone (UV).

[2] = target: PDE4B2 (Homo sapiens (Human), UniProt Q07343); test: as above; type: biochemical; details: 100 nM cAMP, 30° C., 90 minutes
Sequence of PDE4B2 (Q07343 other isoform, or with tags, fused parts or gaps, species assumed): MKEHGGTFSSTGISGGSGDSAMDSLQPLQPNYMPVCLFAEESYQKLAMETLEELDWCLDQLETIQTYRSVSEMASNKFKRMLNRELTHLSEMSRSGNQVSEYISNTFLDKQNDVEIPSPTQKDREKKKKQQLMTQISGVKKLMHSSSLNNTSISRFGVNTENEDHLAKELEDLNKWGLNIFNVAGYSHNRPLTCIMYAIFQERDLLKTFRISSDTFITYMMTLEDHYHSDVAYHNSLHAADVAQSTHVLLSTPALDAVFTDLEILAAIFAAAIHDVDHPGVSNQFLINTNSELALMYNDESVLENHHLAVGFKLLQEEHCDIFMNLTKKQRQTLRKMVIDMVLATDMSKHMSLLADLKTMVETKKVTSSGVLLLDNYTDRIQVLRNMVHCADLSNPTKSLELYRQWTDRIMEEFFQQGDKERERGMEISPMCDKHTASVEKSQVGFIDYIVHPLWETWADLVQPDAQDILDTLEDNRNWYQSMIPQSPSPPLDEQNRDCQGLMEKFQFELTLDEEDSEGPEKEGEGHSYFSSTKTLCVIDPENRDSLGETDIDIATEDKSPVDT
Experimental: as §1, §2

Sequence of PDE4D (Q08499 whole entry, species assumed): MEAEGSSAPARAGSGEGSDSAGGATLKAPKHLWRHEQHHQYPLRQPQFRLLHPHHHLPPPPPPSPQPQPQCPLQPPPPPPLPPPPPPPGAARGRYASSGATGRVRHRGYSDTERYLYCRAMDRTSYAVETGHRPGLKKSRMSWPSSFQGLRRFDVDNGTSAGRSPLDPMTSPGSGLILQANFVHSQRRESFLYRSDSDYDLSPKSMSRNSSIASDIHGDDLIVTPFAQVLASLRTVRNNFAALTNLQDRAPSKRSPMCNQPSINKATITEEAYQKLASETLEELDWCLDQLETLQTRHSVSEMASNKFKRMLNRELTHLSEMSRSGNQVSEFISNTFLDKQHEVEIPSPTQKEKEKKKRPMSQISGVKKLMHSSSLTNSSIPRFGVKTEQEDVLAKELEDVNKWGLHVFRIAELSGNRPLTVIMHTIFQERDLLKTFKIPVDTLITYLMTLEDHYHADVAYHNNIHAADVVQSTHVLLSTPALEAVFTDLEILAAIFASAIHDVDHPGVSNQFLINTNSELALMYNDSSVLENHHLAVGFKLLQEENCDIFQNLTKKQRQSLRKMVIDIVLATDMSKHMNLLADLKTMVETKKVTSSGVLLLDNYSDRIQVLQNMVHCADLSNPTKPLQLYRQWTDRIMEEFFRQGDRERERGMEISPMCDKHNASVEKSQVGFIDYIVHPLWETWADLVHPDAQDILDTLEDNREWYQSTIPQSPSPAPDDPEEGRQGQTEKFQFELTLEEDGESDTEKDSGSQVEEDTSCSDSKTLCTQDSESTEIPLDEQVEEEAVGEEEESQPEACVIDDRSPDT

| SMILES | IC50 [1] [µM] | IC50 [2] [µM] |
| --- | --- | --- |
| CCn1c(=O)c2cnc3c(Cl)cccc3c2n(C2CCCC2)c1=O [Example 30, 7-Chloro-1-cyclopentyl-3-ethyl-1H-pyrimido[5,4-c]quinoline-2,4-dione] | 25 | 17 |
| CCCc1cccc2c1ncc1c(=O)n(CC)c(=O)n(C3CCCC3)c12 [Example 32, 1-Cyclopentyl-3-ethyl-7-propyl-1H-pyrimido[5,4-c]quinoline-2,4-dione] | 25 | 25 |
| CCn1c(=O)c2cnc3c(C(C)C)cccc3c2n(C2CCCC2)c1=O [Example 33, 1-Cyclopentyl-3-ethyl-7-isopropyl-1H-pyrimido[5,4-c]quinoline-2,4-dione] | 25 | 12.4 |
| COc1cccc2c1ncc1c(=O)n(-c3cc(C)cs3)c(=O)n(C3CCCC3)c12 [Example 51, 1-Cyclopentyl-7-methoxy-3-(4-methyl-thiophen-2-yl)-1H-pyrimido[5,4-c]quinoline-2,4-dione] | 0.616 | 0.126 |
| COc1cccc2c1ncc1c(=O)n(-c3cccc(C)c3)c(=O)n(C3CCCC3)c12 [Example 54, 1-Cyclopentyl-7-methoxy-3-m-tolyl-1H-pyrimido[5,4-c]quinoline-2,4-dione] | 0.338 | 0.078 |
| COc1cccc2c1ncc1c(=O)n(-c3ccc4c(c3)OCO4)c(=O)n(C3CCCC3)c12 [Example 84, 3-Benzo[1,3]dioxol-5-yl-1-cyclopentyl-7-methoxy-1H-pyrimido[5,4-c]quinoline-2,4-dione] | 0.827 | 0.513 |
| COc1cccc2c1ncc1c(=O)n(-c3cccc(Cl)c3)c(=O)n(C3CCN(S(C)(=O)=O)CC3)c12 [Example 92, 3-(3-Chloro-phenyl)-1-(1-methanesulfonyl-piperidin-4-yl)-7-methoxy-1H-pyrimido[5,4-c]quinoline-2,4-dione] | 0.151 | 0.068 |
| COc1cccc2c1ncc1c(=O)n(-c3cccc(Cl)c3)c(=O)n([C@H]3CC[C@H](C(=O)O)CC3)c12 [Example 103, Trans-4-[3-(3-Chloro-phenyl)-7-methoxy-2,4-dioxo-3,4-dihydro-2H-pyrimido[5,4-c]quinolin-1-yl]-cyclohexanecarboxylic acid.hydrochloride] | 0.055 | 0.017 |
| COc1cccc2c1ncc1c(=O)n(-c3cccc(Cl)c3)c(=O)n([C@@H]3CCN(S(C)(=O)=O)C3)c12 [Example 115, 3-(3-Chloro-phenyl)-1-((R)-1-methanesulfonyl-pyrrolidin-3-yl)-7-methoxy-1H-pyrimido[5,4-c]quinoline-2,4-dione] | 0.163 | 0.049 |
| COc1cccc2c1ncc1c(=O)n(-c3cccc(Cl)c3)c(=O)n([C@H]3CCN(S(C)(=O)=O)C3)c12 [Example 118, 3-(3-Chloro-phenyl)-1-((S)-1-methanesulfonyl-pyrrolidin-3-yl)-7-methoxy-1H-pyrimido[5,4-c]quinoline-2,4-dione] | 0.206 | 0.08 |
| CCS(=O)(=O)N1CCC(n2c(=O)n(-c3cccc(Cl)c3)c(=O)c3cnc4c(OC)cccc4c32)CC1 [Example 121, 3-(3-Chloro-phenyl)-1-(1-ethanesulfonyl-piperidin-4-yl)-7-methoxy-1H-pyrimido[5,4-c]quinoline-2,4-dione] | 0.059 | 0.026 |
| COc1cccc2c1ncc1c(=O)n(-c3cccc(Cl)c3)c(=O)n([C@H]3CC[C@H](NS(C)(=O)=O)CC3)c12 [Example 127, N-{4-[(S)-3-(3-Chloro-phenyl)-7-methoxy-2,4-dioxo-3,4-dihydro-2H-pyrimido[5,4-c]quinolin-1-yl]-trans-cyclohexyl}-methanesulfonamide] | 0.073 | 0.025 |
